Legend:
[1] = test system: colbicula (Corbicula leana); assay: Biological activity of corbicula (aqueduct extension score) in aqueous mineral solutions; type: in vivo; details: saccharide 1 w/v %, total of 18 shellfishes, 16 h
Source text: Influence of various saccharides was judged by observing the degree of extending aqueduct of the shellfish; 3 points: its aqueduct is well extended; 2 points: its aqueduct is slightly extended; 1 point: its aqueduct is not extended but its shells are opened; 0 point: its shells are closed. The effect on biological activity was judged by the total point of 18 shellfishes.
Suitable region for biological activity was examined by using colbicula (Corbicula leana) as fishes and shellfishes living in fresh water in the case of enhancing their biological activity by using aqueous mineral solutions containing various saccharides. In detail, solar salt (85% by weight of sodium chloride and 15% by weight of magnesium) as minerals was dissolved in tap water kept in a container for two days to give final concentrations described in the following Table 4. Saccharide (any one of D-glucose, maltose, sucrose, maltitol, α,α-trehalose, α-maltosyl α,α-trehalose, maltotetraose and cyclic tetrasaccharide) was dissolved in the resulting salt solutions to give a final concentration of 1 w/v %, on a dry solid basis. The resulting each solution was placed in a plastic bat. Eighteen pre-selected active shellfishes in one group were placed in the bat. The bat was shaded with a black cloth and left at ambient temperature (18° C.) for 16 hours. As a control, an aqueous solar salt solution without saccharides was prepared. Biological activity of the shellfish was judged by measuring extend their aqueducts macroscopically in the same manner as in Experiment 1.
Effective concentration range of α,α-trehalose or α-maltosyl α,α-trehalose on enhancing biological activity and/or influencing on suitable region for biological activity of colbicula (Corbicula leana) was determined according to the method of Experiment 4 by examining biological activity of the shellfish in the aqueous mineral solution with a mineral concentration of 1.5 w/v %, where α,α-trehalose or α-maltosyl α,α-trehalose was effective in Experiment 4, containing α,α-trehalose or α-maltosyl α,α-trehalose at a concentration of 0.01, 0.1, 1, 2, 3 or 4 w/v %, on a dry solid basis. As a control, a solution containing 1.5 w/v % of mineral without such saccharides was prepared and treated in the same manner.

[2] = test system: short-necked clam (Ruditapes philippinarum); assay: Biological activity of short-necked clam (aqueduct extension score) in aqueous mineral solutions; type: in vivo; details: saccharide 1 w/v %, total of 18 clams, 16 h
Protocol: Suitable region for biological activity of short-necked clam (Ruditapes philippinarum), as a fish or shellfish living in seawater, was examined by adding various saccharides to mineral aqueous solutions with various concentrations. In detail, solar salt (85% by weight of sodium chloride and 15% by weight of magnesium) as minerals was dissolved in running water kept in a container for two days to give final concentrations described in the following Table 1. Saccharide (any one of D-glucose, maltose, sucrose, maltitol, α,α-trehalose, α-maltosyl α,α-trehalose, maltotetraose and cyclic tetrasaccharide) was dissolved in the resulting salt solutions to give a final concentration of 1 w/v %, on a dry solid basis. Each of the resulting solutions was placed in a plastic bat. Eighteen pre-selected active short-necked clam in one group were placed in the bat. The bat was shaded with a black cloth and left at ambient temperature (18° C.) for 16 hours. As a control, an aqueous solar salt solution without any saccharides was prepared. Saccharides except for α-maltosyl α,α-trehalose as a saccharide derivatives thereof and cyclic tetrasaccharide were chosen from commercialized products. α-Maltosyl α,α-trehalose as saccharide derivatives of α,α-trehalose in a powder form with a purity of 98 w/w % or over was prepared by the method disclosed in Experiment 4 in Japanese Patent Kokai No. 143876/1995. Cyclic tetrasaccharide in a crystalline form with a purity of 98 w/w % or over, on a dry solid basis, was prepared by the method disclosed in Example A-7 in International Patent Publication No. WO02/10361. Influence of various saccharides was judged by observing the degree of extending aqueduct of the shellfish; 3 points: its aqueduct is well extended; 2 points: its aqueduct is slightly extended; 1 point: its aqueduct is not extended but its shells are opened; 0 point: its shells are closed. The effect on biological activity was judged by the total point of 18 shellfishes. To investigate the effective concentration range of α,α-trehalose or α-maltosyl α,α-trehalose against a mineral solution with a concentration of 1.5 w/v % or 4.5 w/v %, where α,α-trehalose or α-maltosyl α,α-trehalose was remarkably effective in Experiment 1, the following experiment using α,α-trehalose or α-maltosyl α,α-trehalose at a concentration of 0.01, 0.1, 1, 2, 3 or 4 w/v % was carried out according to the method in Experiment 1. As a control, mineral aqueous solutions with a concentration of 1.5 w/v % or 4.5 w/v % without any of the saccharides were prepared and carried out in the same manner.

Structure (SMILES) | Judgment score of biological activity ([1]; mineral concentration 0) | Judgment score of biological activity ([1]; mineral concentration 0.5) | Judgment score of biological activity ([1]; mineral concentration 1.0) | Judgment score of biological activity ([1]; mineral concentration 1.5) | Judgment score of biological activity ([1]; mineral concentration 2.0) | Judgment score of biological activity ([1]; mineral concentration 2.5) | Judgment score of biological activity ([1]; mineral concentration 3.0) | Judgment score for biological activity ([2]; mineral 0 w/v %) | Judgment score for biological activity ([2]; mineral 0.5 w/v %) | Judgment score for biological activity ([2]; mineral 1.0 w/v %) | Judgment score for biological activity ([2]; mineral 1.5 w/v %) | Judgment score for biological activity ([2]; mineral 2.0 w/v %) | Judgment score for biological activity ([2]; mineral 2.5 w/v %) | Judgment score for biological activity ([2]; mineral 3.0 w/v %) | Judgment score for biological activity ([2]; mineral 3.5 w/v %) | Judgment score for biological activity ([2]; mineral 4.0 w/v %) | Judgment score for biological activity ([2]; mineral 4.5 w/v %) | Judgment score for biological activity ([2]; mineral 5.0 w/v %) | Judgment score for biological activity ([2]; mineral 5.5 w/v %) | Judgment score for biological activity ([2]; mineral 6.0 w/v %)
OC[C@H]1O[C@H](O[C@H]2[C@H](O)[C@@H](O)C(O)O[C@@H]2CO)[C@H](O)[C@@H](O)[C@@H]1O (mixture of isomers) [Maltose, maltose] | 51 | 49 | 18 | 15 | 14 | 9 | 0 | 4 | 12 | 14 | 15 | 32 | 44 | 48 | 42 | 32 | 25 | 8 | 3 | 0
OC[C@H]1O[C@@H]2OC[C@H]3O[C@H](O[C@@H]4[C@@H](O)[C@@H](OC[C@H]5O[C@H](O[C@H]([C@H]2O)[C@@H]1O)[C@H](O)[C@@H](O)[C@@H]5O)O[C@H](CO)[C@H]4O)[C@H](O)[C@@H](O)[C@@H]3O [Cyclic tetrasaccharide, cyclic tetrasaccharide] | 51 | 50 | 29 | 16 | 13 | 12 | 1 | 6 | 10 | 15 | 16 | 30 | 43 | 49 | 41 | 30 | 17 | 11 | 0 | 0
O=C[C@H](O)[C@@H](O)[C@H](O)[C@H](O)CO [D-Glucose, D-glucose] | 50 | 51 | 25 | 18 | 15 | 5 | 0 | 7 | 12 | 12 | 14 | 30 | 41 | 48 | 44 | 31 | 24 | 11 | 4 | 0
OC[C@@H](O)[C@@H](O[C@H]1O[C@H](CO)[C@@H](O)[C@H](O)[C@H]1O)[C@H](O)[C@@H](O)CO [Maltitol, maltitol] | 50 | 47 | 25 | 18 | 13 | 2 | 0 | 8 | 11 | 15 | 20 | 30 | 41 | 48 | 47 | 32 | 16 | 12 | 5 | 0
OC[C@H]1O[C@H](O[C@H]2[C@H](O)[C@@H](O)[C@@H](O[C@H]3[C@H](O)[C@@H](O)[C@@H](O[C@H]4[C@H](O)[C@@H](O)C(O)O[C@@H]4CO)O[C@@H]3CO)O[C@@H]2CO)[C@H](O)[C@@H](O)[C@@H]1O (stereo partly drawn) [Maltotetraose, maltotetraose] | 51 | 49 | 19 | 14 | 11 | 9 | 0 | 7 | 11 | 12 | 16 | 28 | 45 | 46 | 42 | 31 | 26 | 14 | 5 | 0
OC[C@H]1O[C@@](CO)(O[C@H]2O[C@H](CO)[C@@H](O)[C@H](O)[C@H]2O)[C@@H](O)[C@@H]1O [Sucrose, sucrose] | 51 | 46 | 21 | 11 | 8 | 7 | 0 | 7 | 11 | 14 | 16 | 31 | 44 | 48 | 45 | 30 | 21 | 9 | 0 | 0
